These results are taken from patent US20070179113A1, “GM-CSF gene therapy for Crohn's disease using an improved regulated expression system” (Schering Aktiengesellachaft, priority 2005, published 2007).

Series [1] in a line: Luciferase reporter gene assay for activity of purified mIFN-β protein. Format: cell-based. The procedure: Specifically, the gene encoding mIFN-β was cloned into a pCEP4 expression vector (Invitrogen). The expression plasmid encoding mIFN-β was transiently transfected into 293E cells (Edge Biosystems) using X-tremeGene Ro-1539 Transfection Reagent (Roche). Murine IFN-β protein was purified from the medium by ion-exchange chromatography and by hydrophobic-interaction chromatography. The product was sialyzed and concentrated against dilution buffer (50 mM sodium acetate, pH 5.5, 150 mM sodium chloride, and 5% polypropylene glycol) and sterile filtered. Aliquots of the purified protein were stored at −80° C. The activity of the purified protein was assessed using a luciferase reporter gene assay (Hardy et al. (2001) Blood 97:473-482), using a commercial mIFN-β reference standard from Access Biomedical (San Diego, Calif.). The specific activity of the purified protein was 2×10^8 units/mg.
The positive control used for this study was Prednisolone, 2.5 mg/kg, (Sigma, St. Louis) administered by IP injection twice daily, beginning on day 1, until the end of the study. For mIFN-β protein delivery, the mice were given SC injections of purified recombinant mIFN-β protein every other day, starting on day 1 of the study (100,000 or 300,000 IU per animal per injection in 100 ul vehicle buffer). […]

Another series deals with acute EAE in SJL mice. The experiment in a line: Mouse acute EAE model, gene-based delivery of mIFN-β. It is filed as in vivo. Conditions: 100,000 Units s.c. every other day.
Series [2] has as its system Mx1 RNA in murine L929 cells. The series can be described thus: Mx1 RNA induction in vitro in L929 cells (TaqMan RT-PCR). It is filed as cell-based. The procedure: FIG. 5 illustrates Mx1 RNA induction in vitro (in L929 cells) by mIFN-β. L929 cells were seeded at 5×10^5 cells in 6 well plates and stimulated with increasing amounts of purified recombinant mIFN-β protein. Four hours after treatment the cells were harvested, RNA isolated, and Mx1 RNA quantitated by TaqMan analysis. Mx1 RNA expression is plotted as the fold increase relative to GAPDH RNA.
A quantitative PCR/RT-PCR assay was developed to quantitate the levels of Mx1 mRNA in murine PBMC's. Specifically, peripheral blood mononuclear cells (PBMCs) were isolated from mice treated with either mIFN-β protein or following gene-based delivery of the mIFN-β gene. Blood samples obtained from treated mice were centrifuged on a ficoll cushion for 25 minutes at 2,000 rpm. Purified PBMCs were pelleted and RNA for the Mx1 assay was purified using the “RNAeasy” mini extraction kit from Qiagen. The RNA was stored in H2O at −80° C. Mx1 RT-PCR was performed using TaqMan® chemistry and analysis was done on the Applied Biosystems (ABI) PRISM® 7700 Sequence Detection instrument. For reverse transcription of the RNA and amplification of cDNA, the “One-step TaqMan® RNA” kit from ABI was used. […] The samples were analyzed with an Mx1-specific probe/primer combination. Mx1 expression was normalized to GAPDH expression measured in parallel using a standard assay from ABI. […]

The test system of the next series is EAE in SJL mice. The series can be described thus: Murine active EAE model, mIFN-β protein and pBRES mIFN-β plasmid with MFP pellet. It is filed as in vivo. As to conditions: 25 days. How it is done:
FIG. 39A illustrates the effect of treatment of mice with induced EAE neuroinflammation with mIFN-β protein by SC injection every other day for 25 days. SJL mice were immunized on day 1 with proteolipid peptide (PLP) amino acids 139-151/pertussis according to the protocol described in Material and Methods. Groups of mice (n=10 per group) were injected SC on day 1 with mIFN-β protein, 100,000 units (500 ng) or 300,000 units (1500 ng), or vehicle. Animals were scored for EAE disease progression and the average clinical scores are provided with the standard error of the mean score (SEM).
FIG. 39B illustrates the delay in the onset of disease and decrease in the severity of disease following administration of pBRES mIFN-β as compared to the null vector control group. SJL mice were immunized on day I with PLP 139-151/pertussis according to the protocol described. Groups of mice (n=10 per group) were injected IM on day-7 with 200 ug of either pBRES null plasmid DNA or pBRES mIFN-β plasmid DNA with electroporation. One group of mice were treated daily with Prednisolone by IP injection and served as the positive control for the study. Plasmid treated mice were administered one mifepristone (MFP) containing slow release pellets by SC injection on day-3. Animals were scored for EAE disease progression and the average clinical scores are provided with the standard error of the mean score (SEM). […]

In the case of “mIFN-β: purified recombinant murine interferon-beta protein expressed in 293E cells”, in series [1], the “specific activity of the purified protein” value was 2×10^8 units/mg. Moreover, in the series with acute EAE in SJL mice, the “clinical scores compared to vehicle control” value is given as “significantly decreased clinical scores”. In series [2], the “increase in the level of Mx1 RNA” value was 100 fold. The “EC50 of Mx1 RNA induction” value in series [2] (4 hours treatment) is listed as “approximately 50 pg/ml”. Besides, the “severity of disease (clinical scores) compared to vehicle” value with EAE in SJL mice (100,000 units SC every other day) and in the series with EAE in SJL mice (300,000 units SC every other day) was “significantly reduced the severity of the disease” in each case.
